Source: patent US20110207726A1, “Inhibitors of Human Cathepsin L, Cathepsin B, and Cathepsin S” (The Trustees of the University of Pennsylvania, priority 2008, published 2011)
Read-outs that look alike come from different tables or passages of the source.

What was measured:
[1] = molecular target: T1, Human neutrophil cathepsin G (Homo sapiens, UniProt P08311); test: Selectivity assay, cathepsin G; type: biochemical; conditions: for IC50: Cathepsin G, no preincubation
T1 construct: Human neutrophil cathepsin G (Calbiochem 219373, 4.2 μg/mL); purchased Calbiochem 219373; host or cells: human neutrophils
T1 sequence (P08311 21-243 limits assumed): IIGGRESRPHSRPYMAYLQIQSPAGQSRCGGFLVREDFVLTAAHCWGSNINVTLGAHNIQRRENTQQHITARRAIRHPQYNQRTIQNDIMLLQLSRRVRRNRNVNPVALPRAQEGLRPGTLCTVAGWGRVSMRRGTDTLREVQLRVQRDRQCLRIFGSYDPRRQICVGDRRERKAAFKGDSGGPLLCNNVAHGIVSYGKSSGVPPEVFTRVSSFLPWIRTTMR
Method: (§1) Compound No. 1 was assayed for inhibition against papain and cathepsins B, G, K, S, and V. Papain from Carica papaya (Calbiochem 5125, 11 ng/mL), human cathepsin K (Calbiochem 342001, 35 ng/mL), human spleen cathepsin S (Calbiochem 219344, 40 ng/mL), and human cathepsin V (Calbiochem 219467, 39 ng/ml) were assayed using Z-Phe-Arg-AMC substrate at 20 μM, 20 μM, 15 μM, and 1 μM, respectively. Human liver cathepsin B (Calbiochem 219362, 65 ng/mL) was assayed using 15 μM Z-Arg-Arg-AMC substrate (Bachem I-1135). Human neutrophil cathepsin G (Calbiochem 219373, 4.2 μg/mL) was assayed using 15 μM Suc-Ala-Ala-Pro-Phe-AMC substrate (Sigma S9761). All reactions were performed in 20 mM sodium acetate buffer containing 5 mM cysteine and 1 mM EDTA, pH 5.5. Reaction progress was monitored using the Envision microplate reader. IC50 values were measured in triplicate.

[2] = molecular target: T2, human cathepsin K (Homo sapiens, UniProt P43235); test: Selectivity assay, cathepsin K; type: biochemical
T2 construct: purchased Calbiochem 342001
T2 sequence (P43235 115-329): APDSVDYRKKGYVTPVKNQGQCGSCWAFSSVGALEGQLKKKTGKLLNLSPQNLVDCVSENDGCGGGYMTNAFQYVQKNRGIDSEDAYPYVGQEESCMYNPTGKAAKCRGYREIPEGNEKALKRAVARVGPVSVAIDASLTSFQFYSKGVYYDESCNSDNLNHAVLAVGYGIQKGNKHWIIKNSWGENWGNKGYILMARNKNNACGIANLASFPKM
Method: as §1

[3] = molecular target: T3, Human liver cathepsin B (Homo sapiens, UniProt P07858); test: Cathepsin B assay, IC50 determination; type: biochemical
T3 construct: Human liver cathepsin B (Calbiochem 219362, 65 ng/mL); purchased Calbiochem 219362; host or cells: human liver
Summary of the method: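 Spleen cathepsin S (40 ng/mL) with 15 microM Z-Phe-Arg-AMC and liver cathepsin B (65 ng/mL) with 15 microM Z-Arg-Arg-AMC, in 20 mM sodium acetate, 1 mM EDTA, 5 mM cysteine, pH 5.5. AMC fluorescence release monitored; IC50 measured in triplicate.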

[4] = molecular target: T4, Papain from Carica papaya (Carica papaya, UniProt P00784); test: Selectivity assay, papain; type: biochemical; conditions: for IC50: Papain, no preincubation
T4 construct: Papain from Carica papaya (Calbiochem 5125, 11 ng/mL); purchased Calbiochem 5125; host or cells: Carica papaya
Method: as §1

[5] = system: Plasmodium falciparum; test: Malaria assay, in vitro propagation; type: cell-based; conditions: read-out: IC50 against Plasmodium falciparum
Method: Eight two-fold serial dilutions of Compound No. 1 in RPMI 1640 media (Invitrogen 1 1 875) containing L-Glutamine, 50 mg/L hypoxanthine, 6 g/L HEPES, 0.5% Albumax 11 bovine serum (Invitrogen 11021), 0.225% sodium bicarbonate, and 1 pgIrnL gentamicin were performed in Corning 3704 microplates. […] In addition, 30 μL normal red blood cells and 30 μL infected red blood cells were added to two control columns containing 10 μL media. The plates were incubated at 37° C. in a 92% humidity chamber with 5% CO2, 5% O2, and 90% N2 for 48 hours to allow for two cycles of red blood cell rupture and invasion to take place. Forty μL BrightGlo™ (Promega E2610) were added to each well and centrifuged. After 5 minutes, luminescence was measured using the Envision microplate reader.

[6] = 30 min, read-out: IC50 @ 30 min
[7] = 60 min, read-out: IC50 @ 60 min
[8] = 90 min, read-out: IC50 @ 90 min

T4 sequence (P00784 134-345): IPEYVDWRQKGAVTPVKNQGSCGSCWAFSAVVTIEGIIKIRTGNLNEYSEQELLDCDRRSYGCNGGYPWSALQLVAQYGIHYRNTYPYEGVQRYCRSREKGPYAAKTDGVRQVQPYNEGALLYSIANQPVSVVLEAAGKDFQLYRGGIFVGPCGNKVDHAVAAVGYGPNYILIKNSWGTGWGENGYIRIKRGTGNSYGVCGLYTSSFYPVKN

For `CCc1ccccc1NC(=O)CSC(=O)NNC(=O)[C@H](Cc1c[nH]c2ccccc12)NC(=O)OC(C)(C)C` [Compound No. 1], the “inhibitory activity against cathepsin G (in words)” value [1] was “no inhibitory activity”, the IC50 ([1]; human neutrophil, 10 min) was > 50 µM and the IC50 [1, 6] was > 50 µM. For the same compound, the IC50 [1, 7] was > 50 µM, the IC50 [1, 8] was > 50 µM and the IC50 [2] was 17.6 ± 1.04 µM. The “Selectivity Index @ 10 min” value ([2]; Cathepsin K vs cathepsin L, 10 min) was 114, the “Selectivity Index @ 30 min” value ([2]; Cathepsin K vs cathepsin L, 30 min) was 113 and the “Selectivity Index @ 60 min” value ([2]; Cathepsin K vs cathepsin L, 60 min) was 151. For the same compound, the “Selectivity Index @ 90 min” value ([2]; Cathepsin K vs cathepsin L, 90 min) was 137, the “Selectivity Index” value ([2]; Cathepsin K vs cathepsin L, over 10-90 min) was 113-151 and the IC50 ([2]; Cathepsin K, no preincubation, 30 min, read-out: IC50 @ 30 min) was 8.46 ± 0.366 µM. The IC50 ([2]; Cathepsin K, no preincubation, 60 min, read-out: IC50 @ 60 min) was 8.44 ± 0.14 µM, the IC50 ([2]; Cathepsin K, no preincubation, 90 min, read-out: IC50 @ 90 min) was 6.857 ± 0.063 µM and the “Selectivity Index @ 10 min” value ([3]; Cathepsin B vs cathepsin L, 10 min) was 48. For the same compound, the “Selectivity Index @ 30 min” value ([3]; Cathepsin B vs cathepsin L, 30 min) was 40, the “Selectivity Index @ 60 min” value ([3]; Cathepsin B vs cathepsin L, 60 min) was 45 and the “Selectivity Index @ 90 min” value ([3]; Cathepsin B vs cathepsin L, 90 min) was 50. For the same compound, the “Selectivity Index” value ([3]; Cathepsin B vs cathepsin L, over 10-90 min) was 40-50, the IC50 ([3]; Cathepsin B, no preincubation, 30 min, read-out: IC50 @ 30 min) was 2.98 ± 0.295 µM and the IC50 ([3]; Cathepsin B, no preincubation, 60 min, read-out: IC50 @ 60 min) was 2.53 ± 0.073 µM. It also gave an IC50 ([3]; Cathepsin B, no preincubation, 90 min, read-out: IC50 @ 90 min) of 2.51 ± 0.139 µM, an IC50 ([3]; IC50 @ 10 min, Cathepsin B, human liver, no preincubation, 10 min) of 7.49 ± 0.693 µM and an IC50 ([3]; Table 1, read-out: IC50 Cat B) of 4.45 µM. For the same compound, the IC50 ([4]; IC50 @ 10 min, Carica papaya, 10 min) was 6.76 ± 0.367 µM, the “Selectivity Index @ 10 min” value ([4]; Papain vs cathepsin L, 10 min) was 44 and the “Selectivity Index @ 30 min” value ([4]; Papain vs cathepsin L, 30 min) was 40. The “Selectivity Index @ 60 min” value ([4]; Papain vs cathepsin L, 60 min) was 46, the “Selectivity Index @ 90 min” value ([4]; Papain vs cathepsin L, 90 min) was 31 and the “Selectivity Index” value ([4]; Papain vs cathepsin L, over 10-90 min) was 31-46. For the same compound, the IC50 [4, 6] was 2.98 ± 0.282 µM, the IC50 [4, 7] was 2.6 ± 0.208 µM and the IC50 [4, 8] was 1.56 ± 0.314 µM. For the same compound, the IC50 [5] was 15.4 ± 0.6 µM.
